Test results taken from patent US5554359A, “Pigmentation enhancer and method” (priority 1994, dated 1996).
Like-named read-outs stand apart in the source and are kept apart here. *1 amine or outer side, *2 acyl side, *3 side chain or, on linkers, in order; H or OH if unused. Where a SMILES comes first, the peptide text is derived from it. Bridges are numbered along the chain shown (N, C = ends). Roman numbers before positions name the chains, in order. [ ]: non-standard residue; d: D form. Actinocin(9to1) = Cc1c2oc3c(C)ccc(C(=O)[*:1])c3nc-2c(C(=O)[*:2])c(N)c1=O; NMeV = CN[C@H](C(=O)O)C(C)C; Sar = CNCC(=O)O

Legend:
[1] = test system: tyrosinase activity in mouse melanoma cells; assay: Tyrosinase activity in Cloudman S91/mouse melanoma cells, earlier studies; type: cell-based; settings: MSH-stimulated tyrosinase activity
Protocol: The MSH response in these cells can be mimicked by treatment of cells with either cAMP analogues such as dbcAMP (dibutyryl cyclic AMP) or 8-bromo cAMP, or with inhibitors of phosphodiesterase activity such as theophylline and IBMX. […] Although it is clear that cAMP is the second messenger for MSH action, tyrosinase activity is not altered by direct incubation with activated protein kinase A, nor is tyrosinase directly phosphorylated by this kinase. Even though cAMP levels rise within minutes of treatment of cells with MSH, no increases in tyrosinase activity are detectable until 6-9 hours after exposure of cells to hormone. […] In an effort to further delineate the cellular pathways involved in the MSH stimulation of tyrosinase activity, we examined the transcriptional and translational requirements for MSH action. […] However, other studies have shown that tyrosinase may be activated in melanoma cells treated with MSH. Discussed herein are studies carried out to examine the contributions of induction and activation to the overall MSH stimulation of tyrosinase activity in melanoma cells. Further, studies on the regulation of tyrosinase in normal human melanocytes are also described and compared to those from melanoma cells.
Even more elaborate models involving an activation of tyrosinase via internalized MSH receptors have been proposed. Evidence for tyrosinase inhibitors in mouse melanocytes and melanoma has been reported by many investigators, but no such molecules have yet been isolated.

[2] = test system: tyrosinase activity in human melanocytes; assay: Tyrosinase responses in human melanocytes (Table 6); type: cell-based; settings: Homo sapiens, Melanocyte; Table 6; 10^-7 M except IBMX 10^-4 M, theophylline 1 mM, ammonium chloride 10 mM, A23187 not given; melanocytes from skin type III; read-out: Effect on Tyrosinase Activity, Human Melanocyte
Protocol: (§1) The mouse melanoma cell lines used to study the effects of lysosomotropic agents herein were the Cloudman S91 cell line (ATCC no. CCL 53.1) and two subclones of this line developed in our laboratory, the amelanotic line, AM-7, and a melanotic line, MEL-11A. All melanoma cell lines were grown in Ham's F-10 nutrient medium supplemented with 10% horse serum, penicillin (100 units/ml), and streptomycin (100 μg/ml). The normal human melanocyte cell strains used in this study were derived from foreskins of either neonares or from boys 2-6 years old. Human melanocyte cultures were grown in Ham's F-10 nutrient medium supplemented with 10% horse serum, 5% fetal bovine serum (FBS), 32 nM TPA (12-O-tetradecanoylphorbol 13-acetate), 10^-4 M IBMX(3-isobutyl-1-methylxanthine), penicillin (100 units/ml), and streptomycin (100 μg/ml).
(§2) To determine tyrosinase activity in situ in either melanoma cells or in human melanocyte cultures, the tyrosine hydroxylase activity of the enzyme was determined. Cells were seeded into 60-mm culture dishes at 2×10^5 cells/dish and allowed to attach overnight. The medium was then exchanged for the appropriate growth medium supplemented with 1 μCi/ml of [^3 H]tyrosine (L-ring-3,5-^3 H]-tyrosine, DuPont New England Nuclear), and with hormones, where indicated. Cells were grown in labeled medium for 24 hours, and at this time, the medium was removed and assayed for the presence of ^3 H2 O using the charcoal absorption method of Pomerantz. Tyrosinase activity in cell homogenates was determined by sonicating cell pellets in 0.1-M sodium phosphate buffer (pH 6.8) and then incubating 50-μl aliquots in 0.5 ml of a reaction mixture containing 0.1-mM tyrosine, 2 μCi/ml of [^3 H]tyrosine, 0.1-mM L-DOPA (dihydroxyphenylalanine), and 0.1 mM PMSF (phenylmethylsulfonyl fluoride) at 37° C. for 2 hours. Reactions were terminated by the addition of 1 ml of charcoal (10% w/v in 0.1-N HCl). Samples were centrifuged, and the supernatants removed for determination of the amount of ^3 H2 O produced.
Hormone responsiveness in human melanocyte cell cultures were examined (for these studies, melanocytes derived from skin type III were used). […] Tyrosinase activity and melanin content typically double with a 48-hour exposure to IBMX. […] The steroid hormones, for the most part, caused little, if any, change in tyrosinase activity at the concentrations used.

[3] = test system: tyrosinase activity in mouse melanoma cells; assay: Tyrosinase responses in mouse melanoma cells (Table 6); type: cell-based; settings: compounds that raise intracellular cAMP levels or MSH
Protocol: as §1
as §2, with “produced. […]” for “produced.”

[4] = test system: tyrosinase activity in mouse melanoma cells; settings: Cloudman S91; cited from earlier work
[5] = test system: tyrosinase activity in human foreskin organ cultures; assay: Tyrosinase activity in human foreskin organ cultures (tyrosine hydroxylase assay); type: cell-based; settings: for activity at 1000 µM: Homo sapiens, read-out: Tyrosinase Activity, Percentage of control; for activity at 1000 µM / Tyrosinase Activity: Table 3, theophylline 1 mM, 3 days
Protocol: At the time of surgical removal, human foreskins were placed on sterile gauze saturated with sterile IMDM medium (Iscove's modified Dulbecco's medium purchased from Irvine Scientific of Santa Ana, Calif.) for transportation from the Hospital nursery to the laboratory. The tissues were rinsed in sterile IMDM medium containing 500 U/ml penicillin and 500 μg/ml of streptomycin for 5 minutes. Under sterile conditions, an intradermal injection of medium was performed from the dermal side prior to dissection of the mucous membrane and lower dermis by scissors to make the thickness of skins equal. The foreskins were then cut into approximately 3 mm×3 mm squares and either frozen at -75° C. or placed in organ culture as described hereafter.
The organ culture medium was prepared from IMDM with glutamine supplemented with 20% horse serum, 5% fetal bovine serum, 100 U/ml penicillin, 100 μg/ml streptomycin and 3 mg/ml sodium bicarbonate. The serums were obtained from Hyclone Lab. Inc. of Logan Utah. Culture units were prepared by placing sterilized filters (AP20 025 00, Millipore) over sterilized support screens ([…] Swinnex filter support screens, Millipore) in the wells of 6-well tissue culture plates (Falcon 3046) with medium added to the wells such that the skin support screens floated and the filter absorbed the medium from beneath. The tissue samples were placed, epidermis up, on top of the saturated filters and incubated at 37° C. in a 5% CO2 humidified atmosphere. The medium was changed everyday. Harvested cultures were frozen at -75° C.
Tyrosinase activity in human skin organ cultures was determined by measuring the tyrosine hydroxylase activity of the enzyme. The assay measures the production of ^3 H2 O during the conversion of [^3 H]tyrosine to L-DOPA. Weighed skin preparations were incubated in 0.3 ml of a reaction mixture containing 0.01 mM of L-tyrosine, 5-6 uCi/ml of [^3 H]tyrosine and 0.1 mM L-DOPA in 0.1M of pH 6.8 phosphate buffer for 4 hours at 37° C. To terminate the reaction, 1 ml of phosphate buffer was added, the tubes vortexed, and 0.4 ml aliquots removed in triplicate and mixed with an equal volume of Norit SG activated charcoal (10% w/v, in 0.1N HCl). Following centrifugation at 2000×g for 10 min, the supernatants (0.5 ml) were placed in scintillation vials, scintillation fluid added, and vials counted in a TM Analytic 6895 scintillation counter equipped with a DPM processor.
Human foreskins were treated with the compounds shown in Table 1, placed in culture, and incubated for 72 hours. The skins were then assayed for tyrosinase activity with the tyrosine hydroxylase assay method as described herein.
The medium and compounds were changed daily. Tyrosinase activity was determined by measuring the tyrosine hydroxylase activity of the enzyme.
Human foreskin organ cultures were treated with the compounds listed in Table 3 for 3 days and tyrosinase activity determined as described herein. Theophylline was used at 1 mM.

[6] = Table 1, B = black, 72 h, Theophylline 1 mM, MSH 2 × 10^-7 M, dbcAMP 0.1 mM, D-phe-MSH 10^-8 M
[7] = Table 1, W = white, 72 h, Theophylline 1 mM, MSH 2 × 10^-7 M, dbcAMP 0.1 mM, D-phe-MSH 10^-8 M

α-amanitin
hormonal induction of enzyme activity [1]: completely blocked

Cc1c2oc3c(C)ccc(C(=O)N[C@@H]4C(=O)N[C@H](C(C)C)C(=O)N5CCC[C@H]5C(=O)N(C)CC(=O)N(C)[C@@H](C(C)C)C(=O)O[C@@H]4C)c3nc-2c(C(=O)N[C@@H]2C(=O)N[C@H](C(C)C)C(=O)N3CCC[C@H]3C(=O)N(C)CC(=O)N(C)[C@@H](C(C)C)C(=O)O[C@@H]2C)c(N)c1=O [actinomycin D] (I: T[dV]P[Sar][NMeV] / II: T[dV]P[Sar][NMeV]; ester I:1-I:C, II:1-II:C; linker I:N-II:N via Actinocin(9to1))
hormonal induction of enzyme activity [1]: completely blocked

Cn1c(=O)c2[nH]cnc2n(C)c1=O [Theophylline, theophylline]
activity at 1000 µM [2]: 150 to 200% | response of mouse melanoma cells [3]: respond vigorously | mimicking of the MSH response [4]: mimicked | activity at 1000 µM ([5]; 72 h, White skin (control 0.31 ± 0.03)): 307% | activity at 1000 µM ([5]; 72 h, first Black skin (control 2.55 ± 0.13)): 212% | activity at 1000 µM ([5]; 72 h, second Black skin (control 3.09 ± 0.12)): 197% | Tyrosinase activity stimulated, percentage of black foreskins [5, 6]: 92% | Tyrosinase activity unaffected, percentage of black foreskins [5, 6]: 8% | Tyrosinase activity stimulated, percentage of white foreskins [5, 7]: 86% | Tyrosinase activity unaffected, percentage of white foreskins [5, 7]: 14% | Tyrosinase Activity ([5]; White skin (control 0.31 ± 0.03)): 0.95 ± 0.05 pmoles ^3 H2 O/hr/mg skin | Tyrosinase Activity ([5]; first Black skin (control 2.55 ± 0.13)): 5.40 ± 0.26 pmoles ^3 H2 O/hr/mg skin | Tyrosinase Activity ([5]; second Black skin (control 3.09 ± 0.12)): 6.1 ± 0.24 pmoles ^3 H2 O/hr/mg skin | stimulation of tyrosinase activity ([5]; human foreskins, 72 hours): stronger stimulation of tyrosinase

C[C@@H]1C[C@@H]([C@H](O)CC2CC(=O)NC(=O)C2)C(=O)[C@@H](C)C1 [cycloheximide]
hormonal induction of enzyme activity [1]: completely blocked
